Assay results: patent publication US20110312495A1, “SYNERGISTIC HERBICIDAL COMPOSITION CONTAINING CLOPYRALID AND FLORASULAM” (DOW AGROSCIENCES LLC, priority 2010, published 2011)

What was measured:
Experiment in all cases: Postemergence herbicidal activity under field conditions, visual weed control
Format in all cases: in vivo
Details in all cases: field trial #1, 45 to 92 days after application
[1] = system: Bachelor's button (Centaurea cyanus, CENCY)
Description: (§1) These trials were conducted under field conditions in Germany. Trial sites were located in commercially grown winter barley and winter rye. The crops were grown using normal cultural practices for fertilization, seeding, and maintenance to ensure good growth of the crop and the weeds. The trials were conducted using normal research methodology. Trial plots were between 2.5 to 3 meters (m) wide by 6 to 10 m long. All treatments were applied using a randomized complete block trial design with 3 replications per treatment. The trial sites had naturally occurring populations of weeds. The weed spectrum included, but was not limited to, scentless mayweed (Matricaria inodora, MATIN), field forget-me-not (Myosotis arvensis, MYOAR), and Bachelor's button (Centaurea cyanus, CENCY).
(§2) Treatments consisted of formulated products applied in water. The application volumes were 200 liter per hectare (L/ha). All application were made using precision bicycle sprayers using a 3 m boom using flat fan (80° or 110°) nozzles to broadcast the treatments on the testing plots.
(§3) The treated plots and control plots were rated blind at various intervals after application. Ratings were based of Percent (%) Visual weed control, where 0 corresponds to no injury and 100 corresponds to complete kill. […]

[2] = system: field forget-me-not (Myosotis arvensis, MYOAR)
Description: as §1, §2, §3

[3] = system: scentless mayweed (Matricaria inodora, MATIN)
Description: as §1, §2, §3

SMILES | CENCY Obs - Percent control observed ([1]; clopyralid 30 g ae/ha alone) [%] | CENCY Obs - Percent control observed ([1]; clopyralid 45 g ae/ha alone) [%] | CENCY Obs - Percent control observed ([1]; clopyralid 60 g ae/ha alone) [%] | MYOAR Obs - Percent control observed ([2]; clopyralid 30 g ae/ha alone) [%] | MYOAR Obs - Percent control observed ([2]; clopyralid 45 g ae/ha alone) [%] | MYOAR Obs - Percent control observed ([2]; clopyralid 60 g ae/ha alone) [%] | MATIN Obs - Percent control observed ([3]; clopyralid 30 g ae/ha alone) [%] | MATIN Obs - Percent control observed ([3]; clopyralid 45 g ae/ha alone) [%] | MATIN Obs - Percent control observed ([3]; clopyralid 60 g ae/ha alone) [%] | CENCY Obs - Percent control observed ([1]; florasulam 2.5 g ai/ha alone) [%] | CENCY Obs - Percent control observed ([1]; florasulam 3.75 g ai/ha alone) [%] | CENCY Obs - Percent control observed ([1]; florasulam 5 g ai/ha alone) [%] | MYOAR Obs - Percent control observed ([2]; florasulam 2.5 g ai/ha alone) [%] | MYOAR Obs - Percent control observed ([2]; florasulam 3.75 g ai/ha alone) [%] | MYOAR Obs - Percent control observed ([2]; florasulam 5 g ai/ha alone) [%] | MATIN Obs - Percent control observed ([3]; florasulam 2.5 g ai/ha alone) [%] | MATIN Obs - Percent control observed ([3]; florasulam 3.75 g ai/ha alone) [%] | MATIN Obs - Percent control observed ([3]; florasulam 5 g ai/ha alone) [%]
O=C(O)c1nc(Cl)ccc1Cl [Clopyralid, 3,6-dichloropyridine-2-carboxylic acid] | 37 | 57 | 73 | 0 | 0 | 0 | 0 | 50 | 58 | – | – | – | – | – | – | – | – | –
COc1ncc(F)c2nc(S(=O)(=O)Nc3c(F)cccc3F)nn12 [Florasulam, 2′,6′,8-trifluoro-5-methoxy[1,2,4]triazolo[1,5-c]-pyrimidine-2-sulfonanilide] | – | – | – | – | – | – | – | – | – | 20 | 40 | 70 | 50 | 50 | 67 | 60 | 67 | 53
